Results from ChEMBL document CHEMBL1140648, “Structure-activity relationships of bioisosteres of a carboxylic acid in a novel class of bacterial translation inhibitors” (2007).
Values after ≈ are worked out from the molar mass of the structure shown.

Key:
Format in all cases: functional
Staphylococcus aureus [1] = test: Inhibition of transcription/translation in Staphylococcus aureus at 100 uM
Staphylococcus aureus [2] = test: Antibacterial activity against Staphylococcus aureus UC9218 in presence of 10% HSA
Staphylococcus aureus [3] = test: Antibacterial activity against Staphylococcus aureus UC9218 in presence of 5% HSA
Staphylococcus aureus [4] = test: Ratio of MIC for Staphylococcus aureus UC9218 in presence of 5% HSA to MIC for Staphylococcus aureus UC9218 in absence of HSA
Staphylococcus aureus [5] = test: Antibacterial activity against Staphylococcus aureus UC9218

Compound	inhibition at 100 µM (Staphylococcus aureus [1])	MIC (Staphylococcus aureus [2])	MIC (Staphylococcus aureus [3])	Ratio (Staphylococcus aureus [4])	MIC (Staphylococcus aureus [5])
CN(c1ccc(Cl)cc1)S(=O)(=O)c1ccc(C(=O)Nc2ccc(Br)cc2C(=O)O)cc1	79%	> 128 µg/mL	128 µg/mL	8	8 µg/mL (≈ 15.3 µM)
CN(c1ccc(Cl)cc1)S(=O)(=O)c1ccc(C(=O)Nc2ccc(Br)cc2-c2noc(=O)[nH]2)cc1	98%	> 128 µg/mL	> 128 µg/mL	>8	8 µg/mL (≈ 14.2 µM)
CN(c1ccc(Cl)cc1)S(=O)(=O)c1ccc(C(=O)Nc2ccc(Br)cc2C(O)(C(F)(F)F)C(F)(F)F)cc1	41%	> 128 µg/mL	64 µg/mL	128	0.5 µg/mL (≈ 0.774 µM)
CN(c1ccc(Cl)cc1)S(=O)(=O)c1ccc(C(=O)Nc2ccc(Br)cc2CO)cc1	4%				> 128 µg/mL
CN(c1ccc(Cl)cc1)S(=O)(=O)c1ccc(C(=O)Nc2ccc(Br)cc2C(N)=O)cc1	13%				> 128 µg/mL
CONC(=O)c1cc(Br)ccc1NC(=O)c1ccc(S(=O)(=O)N(C)c2ccc(Cl)cc2)cc1	7%				> 128 µg/mL
CN(c1ccc(Cl)cc1)S(=O)(=O)c1ccc(C(=O)Nc2ccc(Br)cc2Cc2nnn[nH]2)cc1	46%				> 128 µg/mL
CN(c1ccc(Cl)cc1)S(=O)(=O)c1ccc(C(=O)Nc2ccc(Br)cc2-c2n[nH]c(=O)o2)cc1	60%	> 128 µg/mL			2 µg/mL (≈ 3.55 µM)
CN(c1ccc(Cl)cc1)S(=O)(=O)c1ccc(C(=O)Nc2ccc(Br)cc2S(N)(=O)=O)cc1	0%				> 128 µg/mL
CC(O)c1cc(Br)ccc1NC(=O)c1ccc(S(=O)(=O)N(C)c2ccc(Cl)cc2)cc1 (stereo unspecified)	7%				> 128 µg/mL
Cc1cc(Br)ccc1NC(=O)c1ccc(S(=O)(=O)N(C)c2ccc(Cl)cc2)cc1	12%				> 128 µg/mL
CN(c1ccc(Cl)cc1)S(=O)(=O)c1ccc(C(=O)Nc2ccc(Br)cc2-c2nnn[nH]2)cc1	96%				16 µg/mL (≈ 29.2 µM)
CN(c1ccc(Cl)cc1)S(=O)(=O)c1ccc(C(=O)Nc2ccc(Br)cc2NS(C)(=O)=O)cc1	19%				> 128 µg/mL
CN(c1ccc(Cl)cc1)S(=O)(=O)c1ccc(C(=O)Nc2ccc(Br)cc2Br)cc1	6%				> 128 µg/mL
CN(c1ccc(Cl)cc1)S(=O)(=O)c1ccc(C(=O)Nc2ccc(Br)cc2NS(=O)(=O)C(F)(F)F)cc1	72%				32 µg/mL (≈ 51 µM)
CC(=O)c1cc(Br)ccc1NC(=O)c1ccc(S(=O)(=O)N(C)c2ccc(Cl)cc2)cc1	0%				> 128 µg/mL
CN(c1ccc(Cl)cc1)S(=O)(=O)c1ccc(C(=O)Nc2ccc(Br)cc2)cc1	11%				> 128 µg/mL
CN(c1ccc(Cl)cc1)S(=O)(=O)c1ccc(C(=O)Nc2ccc(Br)cc2[N+](=O)[O-])cc1	0%				> 128 µg/mL
CN(c1ccc(Cl)cc1)S(=O)(=O)c1ccc(C(=O)Nc2ccc(Br)cc2C#N)cc1	0%				> 128 µg/mL
CO[C@@H]1[C@@H](OC(N)=O)[C@@H](O)[C@H](Oc2ccc3c(O)c(NC(=O)c4ccc(O)c(CC=C(C)C)c4)c(=O)oc3c2C)OC1(C)C [NOVOBIOCIN]		1 µg/mL	0.5 µg/mL		> 0.125 µg/mL
